According to US20100008932A1, “USE OF SOLUBLE CD160 TO SUPPRESS IMMUNITY” (INSERM (Institut National de la Sante et de la Recherche …, priority 2006, published 2010):

Tests used:
[1] = tested on: CD160 cell surface expression on IL-15-activated PB-NK lymphocytes; assay: Inhibition of the GPI-anchored CD160 cleavage: flow cytometry of membrane-bound CD160 on IL-15-activated PB-NK cells; format: cell-based, human; conditions: 8-12 h after 72 h IL-15, PB-NK cells, anti-CD160 mAb BY55 flow cytometry
Excerpt: The antibodies used in this study were the following: anti-Flag M2 mAb (Sigma, St Quentin Fallavier, France), rabbit anti-GPI-phospholipase D (Caltag laboratories, Burlingame, Calif.), anti-CD56 mAb (Beckman-Coulter, Marseille, France), and anti-CD160 mAb (BY55 (IgM) and CL1-R2 (IgG1), produced locally). Irrelevant isotype-matched antibodies were used as negative controls. FITC- or PE-conjugated goat anti-mouse IgG or IgM (Beckman-Coulter), or coat anti-rabbit IgG (Caltag laboratories) were utilized as secondary reagents. Cells were phenotyped by indirect i munofluorescence. Briefly, the cells were incubated with the specific mAb for 30 min at 4° C., washed twice in PBS, and further incubated with the appropriated FITC- or PE-labeled secondary antibodies. After washing, cells were analyzed by flow cytometry on an EPICS XL apparatus (Beckman-Coulter). For intracellular staining, the cells were permeabilized in saponin buffer (PBS/0.1% BSA/0.1% saponin) (Sigma) prior to staining, and all subsequent steps were performed in saponin buffer, as described above.
The phospholipase inhibitors U73122, U73343 and 1,10 phenanthroline (1,10 PNT) were purchased from Sigma. 3×10^5/ml PB-NK cells were cultured for 72 h in RPMI 1640 supplemented with 10% heat-inactivated human serum, penicillin/streptomycin, L-glutamine and IL-15 (10 ng/ml; PeproTech, Levallois-Perret, France). […]

[2] = tested on: release of soluble CD160 by IL-15-stimulated PB-NK cells; assay: Anti-CD160 immunoprecipitation and immunoblotting of soluble CD160 in PB-NK cell culture supernatant; format: cell-based, human; conditions: IL-15-stimulated PB-NK cells cultured in the presence of 1,10-PNT; CL1-R2 immunoprecipitation and Western blot
Description: Culture medium (10 ml) from transfected COS7 cells was incubated with 5 μg of anti-Flag M2 mAb for 1 h 30 at 4° C., and immune complexes were collected with 20 μl of Protein G-Sepharose beads. Alternatively, 2×10^7 control or IL-15-activated PB-NK lymphocytes were cultured for 24-48 h in 10 ml of RPMI 1640 medium without serum. Culture supernatants were collected and incubated with CL1-R2 mAb (10 μg per test) followed by protein G-Sepharose beads. After washes, the precipitated proteins were separated by SDS-8% PAGE. The proteins were then transferred onto a nitrocellulose membrane and subjected to Western blot analysis using the anti-CD160 (CL1-R2, 5 μg/ml) or anti-Flag M2 (5 μg/ml) mAb. HRP-conjugated goat anti-mouse antibodies (Jackson Immunoresearch, Westgrove, Pa.) were used as secondary antibodies, and the immunoreactive proteins were visualized using an ECL kit (Amersham Biosciences).

| Compound | effect on IL-15-induced down-modulation of CD160 cell surface expression ([1]; 1,10 PNT 10 μM) | soluble CD160 protein band immunoprecipitated from culture supernatant [2] | effect on IL-15-induced down-modulation of CD160 cell surface expression ([1]; U73122 2 μM) |
| --- | --- | --- | --- |
| O.c1cnc2c(c1)ccc1cccnc12 [1,10 PNT, 1,10-phenanthroline monohydrate] | partially impaired | no protein band is immunoprecipitated |  |
| COc1ccc2c(c1)CC[C@@H]1[C@@H]2CC[C@]2(C)[C@@H](NCCCCCCN3C(=O)C=CC3=O)CC[C@@H]12 [U73122] |  |  | not affected |
